We go through 8 compounds from ChEMBL document CHEMBL1154336, “The discovery and optimisation of benzazepine sulfonamide and sulfones as potent agonists of the motilin receptor” (Bioorg Med Chem Lett, 2009).

For series [1], the target named is Cytochrome P450 2D6 (Homo sapiens, UniProt P10635). As to the kind of experiment: Inhibition of human recombinant CYP2D6. Type of series: ADME.
The target of series [2] is Cytochrome P450 2C9 (Homo sapiens, UniProt P11712). As to the kind of experiment: Inhibition of human recombinant CYP2C9. It is filed as ADME.
Series [3] has as its target Motilin receptor (Homo sapiens, UniProt O43193). As to the kind of experiment: Agonist activity at human recombinant motilin receptor expressed in CHO cells by FLIPR assay. It is filed as functional, cell-based.
Series [4] has as its target T1, Cytochrome P450 3A4 (Homo sapiens, UniProt P08684). As to the kind of experiment: Inhibition of human recombinant CYP3A4 using diethoxyfluorescein as substrate. Type of series: ADME.
Series [5] concerns the target D(2) dopamine receptor (Homo sapiens, UniProt P14416). As to the kind of experiment: Agonist activity at dopamine D2 receptor. It is filed as functional.
The target in series [6] is T2, Growth hormone secretagogue receptor type 1 (Homo sapiens, UniProt Q92847). As to the kind of experiment: Agonist activity at human ghrelin receptor. Type of series: functional.
Series [7] deals with T2, Growth hormone secretagogue receptor type 1. As to the kind of experiment: Intrinsic activity at human ghrelin receptor relative to ghrelin.
Series [8] deals with D(3) dopamine receptor (Homo sapiens, UniProt P35462). As to the kind of experiment: Agonist activity at dopamine D3 receptor. Type of series: functional.
In series [9] the target is 5-hydroxytryptamine receptor 6 (Homo sapiens, UniProt P50406). As to the kind of experiment: Agonist activity at 5HT6 receptor. It is filed as functional.
Series [10] has as its target T1, Cytochrome P450 3A4. As to the kind of experiment: Inhibition of human recombinant CYP3A4 using 7-{3-(4-phenylpiperazin-1-ylmethyl)benzyl}resorufin as substrate. It is filed as ADME.
A short description of series [11]: Aqueous solubility at pH 7.4. Type of series: physicochemical.
Series [12] deals with T3, Cytochrome P450 1A2 (Homo sapiens, UniProt P05177).
T3 sequence (P05177 whole entry): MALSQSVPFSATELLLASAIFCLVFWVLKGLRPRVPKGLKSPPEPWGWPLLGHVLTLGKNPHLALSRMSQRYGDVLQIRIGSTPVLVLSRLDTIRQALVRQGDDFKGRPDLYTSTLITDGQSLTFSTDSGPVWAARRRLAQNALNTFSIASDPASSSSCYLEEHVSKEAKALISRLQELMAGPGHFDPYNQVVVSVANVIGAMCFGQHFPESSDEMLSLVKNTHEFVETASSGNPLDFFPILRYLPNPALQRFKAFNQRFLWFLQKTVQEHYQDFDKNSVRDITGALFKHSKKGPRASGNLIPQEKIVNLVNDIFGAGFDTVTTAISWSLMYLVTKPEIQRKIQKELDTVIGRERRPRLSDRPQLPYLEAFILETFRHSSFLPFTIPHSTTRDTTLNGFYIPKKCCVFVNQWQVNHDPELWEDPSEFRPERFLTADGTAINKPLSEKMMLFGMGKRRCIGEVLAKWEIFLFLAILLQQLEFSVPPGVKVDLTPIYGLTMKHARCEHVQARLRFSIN
As to the kind of experiment: Inhibition of human recombinant CYP1A2. Type of series: ADME.

The target of series [13] is Voltage-gated inwardly rectifying potassium channel KCNH2 (Homo sapiens, UniProt Q12809). As to the kind of experiment: Inhibition of human ERG.
The target in series [14] is Cytochrome P450 2C19 (Homo sapiens, UniProt P33261). As to the kind of experiment: Inhibition of human recombinant CYP2C19. It is filed as ADME.
Series [15] concerns Liver microsomes. As to the kind of experiment: Intrinsic clearance in human liver microsomes after 30 mins. Type of series: ADME, Microsome. As to conditions: 0.5 h. (In general: Liver microsomes are vesicles of endoplasmic reticulum, rich in cytochrome P450 enzymes.)
In series [16] the test system is Stomach. As to the kind of experiment: Increase in electric field stimulated contractile response in New Zealand White rabbit gastric antrum at 1 uM after 60 mins. Type of series: functional. As to conditions: Oryctolagus cuniculus, 1 h.
Series [17] relates to Liver microsomes. As to the kind of experiment: Intrinsic clearance in rat liver microsomes after 30 mins. It is filed as ADME, Microsome. As to conditions: 0.5 h.
The test system of series [18] is Stomach. As to the kind of experiment: Increase in electric field stimulated contractile response in New Zealand White rabbit gastric antrum at 3 uM after 60 mins. It is filed as functional. As to conditions: Oryctolagus cuniculus, 1 h.
A short description of series [19]: Half life in mouse at 10 mg/kg, po. As to conditions: in vivo. Details: dose 10 mg/kg, route oral. It is filed as ADME, organism-based.
Series [20] in a line: Cmax in mouse at 10 mg/kg, po. Also noted: dose 10 mg/kg, route oral. As to conditions: in vivo. It is filed as ADME, organism-based.
Series [21] in a line: Tmax in mouse at 10 mg/kg, po. Type of series: ADME, organism-based. As to conditions: in vivo. Details: dose 10 mg/kg, route oral.

Converted amounts (≈) assume the structure as drawn. Where only a bound is given, the exact number is not on record here.

Sequence of D(2) dopamine receptor (P14416 whole entry): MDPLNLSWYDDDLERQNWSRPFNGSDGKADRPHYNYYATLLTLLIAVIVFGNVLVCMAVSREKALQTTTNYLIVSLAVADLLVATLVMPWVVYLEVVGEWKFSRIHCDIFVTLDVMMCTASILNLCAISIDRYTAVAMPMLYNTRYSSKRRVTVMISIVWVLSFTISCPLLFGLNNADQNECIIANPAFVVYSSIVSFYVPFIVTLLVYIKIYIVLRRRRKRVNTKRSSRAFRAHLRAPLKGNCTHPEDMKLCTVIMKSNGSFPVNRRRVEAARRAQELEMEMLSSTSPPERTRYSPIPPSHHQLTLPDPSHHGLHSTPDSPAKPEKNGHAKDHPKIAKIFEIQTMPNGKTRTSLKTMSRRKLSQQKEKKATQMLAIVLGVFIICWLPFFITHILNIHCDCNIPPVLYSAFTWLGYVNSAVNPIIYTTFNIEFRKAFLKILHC
T1 sequence (P08684 whole entry): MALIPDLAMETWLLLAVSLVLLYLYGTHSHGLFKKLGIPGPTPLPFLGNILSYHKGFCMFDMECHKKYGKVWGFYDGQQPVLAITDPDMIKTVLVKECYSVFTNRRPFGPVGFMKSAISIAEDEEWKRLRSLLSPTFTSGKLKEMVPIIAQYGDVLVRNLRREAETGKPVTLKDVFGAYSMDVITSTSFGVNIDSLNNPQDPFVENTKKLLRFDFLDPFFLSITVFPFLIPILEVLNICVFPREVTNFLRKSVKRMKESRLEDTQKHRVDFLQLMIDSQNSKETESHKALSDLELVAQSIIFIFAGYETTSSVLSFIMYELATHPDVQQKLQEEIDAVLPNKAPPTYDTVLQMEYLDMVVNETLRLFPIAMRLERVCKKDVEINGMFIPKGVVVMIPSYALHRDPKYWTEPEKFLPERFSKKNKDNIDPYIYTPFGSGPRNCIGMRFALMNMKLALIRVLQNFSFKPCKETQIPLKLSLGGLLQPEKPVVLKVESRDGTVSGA
Sequence of 5-hydroxytryptamine receptor 6 (P50406 whole entry): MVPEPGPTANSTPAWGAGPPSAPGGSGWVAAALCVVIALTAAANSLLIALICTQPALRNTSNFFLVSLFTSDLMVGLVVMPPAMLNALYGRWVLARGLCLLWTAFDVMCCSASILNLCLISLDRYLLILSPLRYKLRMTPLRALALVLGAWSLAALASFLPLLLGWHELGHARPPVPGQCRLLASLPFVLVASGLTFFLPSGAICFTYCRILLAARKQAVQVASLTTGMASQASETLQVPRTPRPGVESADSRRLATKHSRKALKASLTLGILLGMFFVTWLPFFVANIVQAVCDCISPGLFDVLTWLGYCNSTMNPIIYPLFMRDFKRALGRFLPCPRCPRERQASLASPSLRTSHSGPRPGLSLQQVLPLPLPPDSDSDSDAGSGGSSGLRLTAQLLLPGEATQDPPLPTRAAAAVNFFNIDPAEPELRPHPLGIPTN
Sequence of Motilin receptor (O43193 whole entry): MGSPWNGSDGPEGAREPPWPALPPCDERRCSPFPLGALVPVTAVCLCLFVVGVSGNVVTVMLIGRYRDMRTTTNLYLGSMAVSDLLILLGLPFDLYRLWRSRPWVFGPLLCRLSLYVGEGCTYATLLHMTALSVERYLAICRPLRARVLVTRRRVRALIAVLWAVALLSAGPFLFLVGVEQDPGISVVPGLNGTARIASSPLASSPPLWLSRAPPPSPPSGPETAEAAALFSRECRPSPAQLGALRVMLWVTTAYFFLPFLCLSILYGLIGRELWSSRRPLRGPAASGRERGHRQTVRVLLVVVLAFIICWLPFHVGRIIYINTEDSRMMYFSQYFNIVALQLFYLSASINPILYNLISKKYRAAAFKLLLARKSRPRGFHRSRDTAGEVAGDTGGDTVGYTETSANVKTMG
T2 sequence (Q92847 whole entry): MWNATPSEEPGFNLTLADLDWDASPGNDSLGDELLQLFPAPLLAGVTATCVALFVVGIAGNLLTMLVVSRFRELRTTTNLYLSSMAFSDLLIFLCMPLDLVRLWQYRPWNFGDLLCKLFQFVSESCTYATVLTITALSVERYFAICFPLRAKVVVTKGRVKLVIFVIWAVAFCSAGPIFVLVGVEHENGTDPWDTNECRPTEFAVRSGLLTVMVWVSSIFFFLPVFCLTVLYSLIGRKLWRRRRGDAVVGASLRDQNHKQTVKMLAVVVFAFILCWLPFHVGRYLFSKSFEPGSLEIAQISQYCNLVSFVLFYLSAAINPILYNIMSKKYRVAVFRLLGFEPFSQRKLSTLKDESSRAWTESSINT
Sequence of Cytochrome P450 2D6 (P10635 whole entry): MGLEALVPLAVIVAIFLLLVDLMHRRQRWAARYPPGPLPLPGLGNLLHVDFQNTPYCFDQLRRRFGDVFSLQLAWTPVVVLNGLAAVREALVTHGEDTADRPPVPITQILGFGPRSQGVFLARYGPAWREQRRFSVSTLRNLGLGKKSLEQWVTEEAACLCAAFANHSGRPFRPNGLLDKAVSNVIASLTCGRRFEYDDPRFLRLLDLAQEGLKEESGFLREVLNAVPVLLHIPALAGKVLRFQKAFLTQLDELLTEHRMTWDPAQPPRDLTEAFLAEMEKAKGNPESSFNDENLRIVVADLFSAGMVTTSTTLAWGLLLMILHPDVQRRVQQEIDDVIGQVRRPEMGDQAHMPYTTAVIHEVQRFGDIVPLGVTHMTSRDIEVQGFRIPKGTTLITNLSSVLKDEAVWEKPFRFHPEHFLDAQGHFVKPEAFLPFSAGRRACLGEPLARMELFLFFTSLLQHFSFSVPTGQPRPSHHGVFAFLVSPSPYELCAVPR
Sequence of Cytochrome P450 2C9 (P11712 whole entry): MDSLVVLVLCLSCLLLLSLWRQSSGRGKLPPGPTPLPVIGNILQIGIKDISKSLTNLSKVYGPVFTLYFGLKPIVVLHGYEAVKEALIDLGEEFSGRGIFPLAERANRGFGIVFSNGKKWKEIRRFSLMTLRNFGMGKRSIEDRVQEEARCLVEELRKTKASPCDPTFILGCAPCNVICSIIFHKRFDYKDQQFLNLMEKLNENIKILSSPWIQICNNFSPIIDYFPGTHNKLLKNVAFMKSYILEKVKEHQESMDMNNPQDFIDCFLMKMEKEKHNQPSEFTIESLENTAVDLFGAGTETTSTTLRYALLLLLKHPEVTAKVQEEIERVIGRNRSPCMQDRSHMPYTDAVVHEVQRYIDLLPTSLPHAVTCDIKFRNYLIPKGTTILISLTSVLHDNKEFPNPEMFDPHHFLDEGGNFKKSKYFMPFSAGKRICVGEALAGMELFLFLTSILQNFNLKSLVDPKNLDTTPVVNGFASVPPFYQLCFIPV
Sequence of D(3) dopamine receptor (P35462 whole entry): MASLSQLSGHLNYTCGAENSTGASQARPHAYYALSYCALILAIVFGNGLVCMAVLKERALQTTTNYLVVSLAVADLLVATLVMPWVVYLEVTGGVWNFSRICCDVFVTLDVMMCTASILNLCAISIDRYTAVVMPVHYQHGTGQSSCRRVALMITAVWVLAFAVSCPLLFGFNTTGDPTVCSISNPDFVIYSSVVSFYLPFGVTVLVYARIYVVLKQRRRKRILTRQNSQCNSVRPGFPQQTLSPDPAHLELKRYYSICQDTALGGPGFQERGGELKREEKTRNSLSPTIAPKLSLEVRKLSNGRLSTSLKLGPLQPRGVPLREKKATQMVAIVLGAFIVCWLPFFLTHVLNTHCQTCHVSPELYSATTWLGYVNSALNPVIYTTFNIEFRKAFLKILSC
Sequence of Voltage-gated inwardly rectifying potassium channel KCNH2 (Q12809 whole entry): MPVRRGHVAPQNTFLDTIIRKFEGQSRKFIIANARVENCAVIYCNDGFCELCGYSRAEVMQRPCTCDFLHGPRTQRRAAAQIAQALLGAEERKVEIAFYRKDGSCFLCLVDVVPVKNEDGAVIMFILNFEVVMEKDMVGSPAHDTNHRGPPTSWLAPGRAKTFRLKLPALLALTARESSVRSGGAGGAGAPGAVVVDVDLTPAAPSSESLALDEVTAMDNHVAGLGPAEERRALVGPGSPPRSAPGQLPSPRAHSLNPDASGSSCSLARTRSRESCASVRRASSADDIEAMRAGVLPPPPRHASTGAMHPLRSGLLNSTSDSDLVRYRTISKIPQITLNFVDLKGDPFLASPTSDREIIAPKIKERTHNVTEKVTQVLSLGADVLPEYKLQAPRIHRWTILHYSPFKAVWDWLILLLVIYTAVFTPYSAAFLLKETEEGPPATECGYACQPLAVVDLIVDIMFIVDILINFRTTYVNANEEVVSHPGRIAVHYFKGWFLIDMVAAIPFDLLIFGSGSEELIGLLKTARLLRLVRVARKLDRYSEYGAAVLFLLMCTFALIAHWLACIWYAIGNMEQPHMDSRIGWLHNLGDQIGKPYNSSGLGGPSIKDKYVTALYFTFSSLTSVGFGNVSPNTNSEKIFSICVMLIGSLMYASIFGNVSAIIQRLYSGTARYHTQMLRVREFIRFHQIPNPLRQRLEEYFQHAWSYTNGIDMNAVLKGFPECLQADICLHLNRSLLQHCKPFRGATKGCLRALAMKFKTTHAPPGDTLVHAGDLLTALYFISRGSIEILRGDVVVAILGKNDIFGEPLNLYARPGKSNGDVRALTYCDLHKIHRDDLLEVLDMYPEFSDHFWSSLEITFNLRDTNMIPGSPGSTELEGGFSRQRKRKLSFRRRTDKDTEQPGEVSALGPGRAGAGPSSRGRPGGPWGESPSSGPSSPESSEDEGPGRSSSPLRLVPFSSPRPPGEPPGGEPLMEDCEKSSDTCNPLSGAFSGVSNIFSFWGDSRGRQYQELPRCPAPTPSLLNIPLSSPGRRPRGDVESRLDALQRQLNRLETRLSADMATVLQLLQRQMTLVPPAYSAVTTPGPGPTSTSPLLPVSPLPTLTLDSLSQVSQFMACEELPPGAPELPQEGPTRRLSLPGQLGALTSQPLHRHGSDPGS

`N#Cc1ccc(S(=O)(=O)Nc2ccc3c(c2)CCN(Cc2cc[nH]n2)CC3)cc1`: the values for the IC50 in series [1] and in series [2] were 7900 nM and 2500 nM, respectively. The EC50 in series [3] is 7940 nM.

`O=S(=O)(Nc1ccc2c(c1)CCN(Cc1cc[nH]n1)CC2)c1ccc(-c2ccccc2)cc1`: the IC50 in [1], in series [4] and in [10] was under 100 nM in each case. Besides, the figures for the Ki in [5], in series [8] and in series [9] were 631 nM, 31.6 nM and 126 nM, respectively. For the same compound, the results for the EC50 in [6] and in series [3] were 1580 nM and 10 nM, respectively. In series [7], this compound had an Intrinsic activity of 0.7.

As to `CCCCc1ccc(S(=O)(=O)Nc2ccc3c(c2)CCN(Cc2ccn[nH]2)CC3)cc1`, the concentration in solution in [11] (solubility) came to 10000 µg/mL (≈ 22.8 mM). The IC50 in series [1] is under 100 nM; in series [12] it was 29 µM; in series [4], 800 nM; in series [13], 2510 nM; in series [2], 600 nM; in series [10], 1900 nM. Besides, in [14], the IC50 was 8.8 µM. Moreover, the Ki in series [5] was 100 nM; in series [8], 3.98 nM. The EC50 in [6] is 79.4 nM; in [3], 2.51 nM.

On to `O=S(=O)(Cc1ccc2c(c1)CCNCC2)c1ccc(-c2ccc(F)cc2)nc1`, for which the IC50 in [1] was 600 nM. The CL in series [15] was under 1 mL/min/g; in series [17], under 0.5 mL/min/g. For the same compound, the Emax at 1 µM in [16] was determined as 54%. Besides, the results for the EC50 in [6] and in [3] were over 1000 nM and 5.01 nM, respectively.

With `CCCCc1ccc(S(=O)(=O)Nc2ccc3c(c2)CCN(Cc2cc[nH]n2)CC3)cc1`, the Emax at 1 µM in series [16] was 47%. In series [7], this compound came in with an Intrinsic activity of 0.7.

For `O=S(=O)(Nc1ccc2c(c1)CCN(Cc1cc[nH]n1)CC2)c1ccc(-c2ccccn2)s1`, the IC50 in [1] turned out to be 200 nM; in series [2] it was 400 nM. For the same compound, the values for the Ki in series [5], in series [8] and in [9] were over 794 nM, 200 nM and 158 nM, respectively. For the same compound, the concentration giving a half-maximal response (EC50) in series [6] was over 10000 nM; in [3], 7.94 nM. Besides, the maximal effect (Emax) at 3 µM in [18] came to 190%.

`O=S(=O)(Cc1ccc2c(c1)CCNCC2)c1ccc(-c2ccc(F)cc2)cc1`: the IC50 in [1] is 200 nM. For the same compound, the CL in [15] and in series [17] was under 1 mL/min/g each time. The EC50 in series [6] was over 10000 nM; in series [3], 12.6 nM. This compound showed an Emax at 3 µM in series [18] of 166%.

The compound `O=S(=O)(Nc1ccc2c(c1)CCN(Cc1cc[nH]n1)CC2)c1ccc(N2CCOCC2)nc1` came in with a solubility in series [11] of 371 µg/mL (≈ 0.792 mM). Moreover, the IC50 is under 1000 nM in series [1]; over 8 µM in [12]; over 8000 nM in series [4]; over 15800 nM in series [13]; over 8000 nM in [10]; over 8 µM in series [14]. The values for the CL in series [15] and in series [17] were 6.6 mL/min/g and 3.8 mL/min/g, respectively. The half-life in series [19] was 90 min. Also, in [20], the peak level (Cmax) was 273 ng/mL. Further, the figures for the Ki in [5], in series [8] and in series [9] were over 3160 nM, 631 nM and 631 nM, respectively. The EC50 was over 1000 nM in series [6] and 6.31 nM in [3]. In series [21], the Tmax is 2 h.

The IC50 is the concentration that inhibits the measured activity by half. Usually EC50 stands for the concentration that produces a half-maximal response. As a reminder, the Ki is the equilibrium dissociation constant of an inhibitor or competing ligand from its target. Higher therefore signals lower affinity. One may read the solubility as the dissolved amount per volume that the medium holds. In general, Emax refers to the maximal effect, on the per cent scale that the assay sets. For orientation: half-life means the time in which the quantity being followed falls by half. Usually Cmax stands for the maximum level reached in the sampled fluid or tissue. The Tmax is the time from dosing to the highest level.
